{"source": "patent US20090048157A1", "about": "“USE OF ORGANIC COMPOUNDS” (priority 2004, published 2009)", "format_in_all_cases": "in vivo, human", "key": {"[1]": {"test_system": "Serum CTX-I (bone resorption marker)", "experiment": "Serum CTX-I (CrossLaps) after single doses of oral or iv salmon calcitonin in male volunteers", "conditions": "eight male volunteers, oral and iv SCT", "from_the_text": "Serum CTX-I, or CrossLaps® (Nordic Bioscience Diagnostics A/S, cat. no. 4CRL4000) is an enzyme-immunoassay for quantitative assessment of bone resorption, and has been cleared by the FDA. It is based on two highly specific monoclonal antibodies against the amino acid sequence of EKAHD-β-GGR originating from the C-telopeptide of type I collagen. The aspartic acid residue (D) is β-isomerized. Standards, control, or unknown serum samples are pipetted into the appropriate microtitre wells coated with streptavidin, followed by application of a mixture of a biotinylated antibody and a peroxidase-conjugated antibody. Then, a complex between the CTX antigens, biotinylated antibody and peroxidase-conjugated antibody is generated, and this complex binds to the streptavidin surface via the biotinylated antibody. Following the one-step incubation at room temperature, the wells are emptied and washed. A chromogenic substrate is added and the colour reaction is stopped with sulfuric acid. Finally, the absorbance is measured.\nThe effect of oral salmon calcitonin (SCT) on the serum levels of CTX-I is investigated by randomising study participants (eight male volunteers) to receive three. single doses of SCT, a verum intravenous infusion of SCT or placebo in a five-period cross-over design (the study is described in detail in Buchlin et al., J Bone Miner Res., (2002); 17:1478-1485)."}, "[2]": {"test_system": "Serum CTX-I (bone resorption marker)", "experiment": "Serum CTX-I response to oral SCT in postmenopausal women, clinical trial", "conditions": "after the first dose, 0.15, 0.4, 1.0 or 2.5 mg, dose-dependent, compared with placebo", "from_the_text": "Serum CTX-I, or CrossLaps® (Nordic Bioscience Diagnostics A/S, cat. no. 4CRL4000) is an enzyme-immunoassay for quantitative assessment of bone resorption, and has been cleared by the FDA. It is based on two highly specific monoclonal antibodies against the amino acid sequence of EKAHD-β-GGR originating from the C-telopeptide of type I collagen. The aspartic acid residue (D) is β-isomerized. Standards, control, or unknown serum samples are pipetted into the appropriate microtitre wells coated with streptavidin, followed by application of a mixture of a biotinylated antibody and a peroxidase-conjugated antibody. […] Finally, the absorbance is measured.\n(§1) The response of serum CTX-I and N-MID® Osteocalcin to SCT in postmenopausal women is examined in a multi-center, randomised, double-blind, placebo-controlled, dose-ranking clinical trial including 277 study participants aged 55-85 years (the study has been described in detail in Tank{acute over (0)} et al., J Bone Miner Res., in print). The study participants receives active treatment (daily doses of 0.15, 0.4, 1.0, or 2.5 mg or 1.0 mg every other day) or placebo for three months and serum CTX-I as well as N-MID® Osteocalcin are measured frequently during a 24-hours period before drug administration and after one and three months."}, "[3]": {"test_system": "N-MID Osteocalcin (bone formation marker)", "experiment": "N-MID Osteocalcin ELISA response to oral SCT in postmenopausal women, clinical trial", "conditions": "0.15-2.5 mg daily or 1.0 mg every other day, compared with placebo", "from_the_text": "The N-MID® Osteocalcin ELISA (Nordic Bioscience Diagnostics A/S, cat. no. 3OSC4000) is an enzyme innuosorbent assay for quantitative assessment of bone formation, and has been cleared by the FDA. It is based upon the application of two highly specific monoclonal antibodies (Mabs) against human osteocalcin. An antibody recognizing the midregion (amino acids 20-29) is used as the capture antibody and for detection a peroxidase conjugated antibody recognizing the N-terminal region (amino acids 10-16) is used. In addition to intact osteocalcin (amino acid 1-49) the N-terminal-Mid fragment (amino acids 1-43) is also detected. […] Finally, the absorbance is measured.\nas §1"}}}
{"substance": "salmon calcitonin [SCT]", "values": [{"measurement": "Time to nadir of serum CTX-I post-treatment", "setting": "[1]", "value": "2 to 4", "unit": "h"}, {"measurement": "Time to return of serum CTX-I to pre-treatment levels", "setting": "[1]", "value": 24, "unit": "h"}, {"measurement": "Serum CTX-I: inhibition of bone resorption", "setting": "[1]; cross-over vs placebo", "value": "marked dose-dependent inhibition of bone resorption"}, {"measurement": "Serum CTX-I decrease from baseline", "setting": "[2]", "value": "−60.8 to −81.8", "unit": "%"}, {"measurement": "Changes of N-MID Osteocalcin", "setting": "[3]", "value": "non-significant"}]}
